ChEMBL document CHEMBL1131805, “Synthesis and biological evaluation of analogs of the marine toxin polycavernoside A” (Bioorg Med Chem Lett, 1999)

Tests used:
Assay type in all cases: ADME
[1] = Minimal lethal dose in mice showing no adverse symptoms seen; conditions: mouse, in vivo
[2] = Minimal lethal dose in mice causing gradual progressive onset of severe scratching of face and body, spasms, paralysis (30 min after injection), severe eye damage, and death occurring within 24 h; range: 0.38-0.77; conditions: mouse, in vivo
[3] = Minimal lethal dose in mice causing gradual progressive onset of severe scratching of face and body, spasms, paralysis, severe eye damage, and death; range: 0.2-0.4; conditions: mouse, in vivo
[4] = Minimal lethal dose in mice causing no scratching or eye damage, but frenetic jumping, severe spasms, and ultimately paralysis; if death did not occur within 30 min, total recovery was noted; range: 1.5-3.1; conditions: mouse, in vivo, 0.5 h
[5] = Minimal lethal dose in mice causing gradual progressive onset of severe scratching of face and body, spasms, paralysis, severe eye damage, and death; range: 1.5-3.1; conditions: mouse, in vivo

COC1C(O)C(C)OC(O[C@H]2C(OC)COC(O[C@H]3C[C@H]4CC(=O)[C@@]5(O)O[C@H](C[C@H]5C)C(C)(C)[C@@H](/C=C/c5ccccc5)OC(=O)C[C@H](O4)[C@@H]3C)[C@@H]2OC)[C@H]1OC (stereo partly drawn)
MLD [1]: > 13 mg/kg

C[C@H]1[C@@H]2CC(=O)O[C@H](/C=C/I)C(C)(C)[C@H]3C[C@@H](C)[C@](O)(O3)C(=O)C[C@H](C[C@@H]1O)O2
MLD [1]: > 13 mg/kg

CO[C@@H]1[C@H](O[C@@H]2[C@@H](OC)[C@H](O[C@H]3C[C@H]4CC(=O)[C@@]5(O)O[C@H](C[C@H]5C)C(C)(C)[C@@H](/C=C/C#C/C=C/C(C)C)OC(=O)C[C@H](O4)[C@@H]3C)OC[C@H]2OC)O[C@@H](C)[C@@H](O)[C@@H]1OC
MLD [2]: 0.38 mg/kg

CO[C@@H]1[C@H](OC)[C@H](O[C@@H]2[C@@H](OC)[C@H](O[C@H]3C[C@H]4CC(=O)[C@@]5(O)O[C@H](C[C@H]5C)C(C)(C)[C@@H](/C=C/C=C/C(C)C)OC(=O)C[C@H](O4)[C@@H]3C)OC[C@H]2OC(C)=O)O[C@@H](C)[C@H]1OC [polycavernoside B]
MLD [3]: 0.2 mg/kg

CO[C@@H]1[C@H](O[C@@H]2[C@@H](OC)[C@H](O[C@H]3C[C@H]4CC(=O)[C@@]5(O)O[C@H](C[C@H]5C)C(C)(C)[C@@H](/C=C/C=C/C5CCCCC5)OC(=O)C[C@H](O4)[C@@H]3C)OC[C@H]2OC)O[C@@H](C)[C@@H](O)[C@@H]1OC
MLD [1]: > 13 mg/kg

CC(C)/C=C/C=C/C=C/[C@H]1OC(=O)C[C@@H]2O[C@H](CC(=O)[C@@]3(O)O[C@H](C[C@H]3C)C1(C)C)C[C@H](O)[C@H]2C
MLD [4]: 1.5 mg/kg

CO[C@@H]1[C@H](O[C@@H]2[C@@H](OC)[C@H](O[C@H]3C[C@H]4CC(=O)[C@@]5(O)O[C@H](C[C@H]5C)C(C)(C)[C@@H](/C=C/C=C/C=C/C(C)C)OC(=O)C[C@H](O4)[C@@H]3C)OC[C@H]2OC)O[C@@H](C)[C@@H](O)[C@@H]1OC [polycavemoside A]
MLD [3]: 0.2 mg/kg

CO[C@@H]1[C@H](O[C@@H]2[C@@H](OC)[C@H](O[C@H]3C[C@H]4CC(=O)[C@@]5(O)O[C@H](C[C@H]5C)C(C)(C)[C@@H](/C=C/C=C/C(C)C)OC(=O)C[C@H](O4)[C@@H]3C)OC[C@H]2OC)O[C@@H](C)[C@@H](O)[C@@H]1OC
MLD [5]: 3.1 mg/kg
